Test results reported in patent US7314861B2, “Melanin-concentrating hormone analogs” (priority 2001, dated 2008).
Where a SMILES comes first, the peptide text is derived from it. Bridges are numbered along the chain shown (N, C = ends).

Legend:
human MCH-1R [1] = biological target: T1, human MCH-1R (Homo sapiens, UniProt Q99705); experiment: Aequorin bioluminescence functional assay, MCH-1R; details: for MCH-1R Activation %: % Activation at 10 μM, aequorin functional assay
Method: (§1) The aequorin bioluminescence assay can be used to measure the activity of G protein-coupled receptors that couple through the Gα protein subunit family consisting of Gq and G11. Such coupling leads to phospholipase C activation, intracellular calcium mobilization and protein kinase C activation.
(§2) Following approximately 40 hours of expression the apo-aequorin in the cells was charged for 4 hours with coelenterazine (10 μM) under reducing conditions (300 μM reduced glutathione) in ECB buffer (140 mM NaCl, 20 mM KCl, 20 mM HEPES-NaOH [pH=7.4], 5 mM glucose, 1 mM MgCl2, 1 mM CaCl2, 0.1 mg/ml bovine serum albumin).
(§3) The cells were harvested, washed once in ECB medium and resuspended to 500,000 cells/ml. 100 μl of cell suspension (corresponding to 5×10^4 cells) was then injected into the test plate containing MCH or MCH analogs, and the integrated light emission was recorded over 30 seconds, in 0.5 second units. 20 μL of lysis buffer (0.1% final Triton X-100 concentration) was then injected and the integrated light emission recorded over 10 seconds, in 0.5 second units. The “fractional response” values for each well were calculated by taking the ratio of the integrated response to the initial challenge to the total integrated luminescence including the Triton X-100 lysis response.

human MCH-1R [2] = biological target: T1, human MCH-1R; experiment: Radiolabeled MCH-R binding assay (SPA based), MCH-1R
Method: (§4) Cell membranes were prepared on ice. Each T-75 flask was rinsed twice with 10 ml of Enzyme-free Cell Dissociation Buffer (Specialty Media, Lavallette, N.J.), and the cell monolayer was detached in an additional 10 ml of Enzyme-free Cell Dissociation Buffer by incubation at room temperature for 10 minutes. Dissociated cells were centrifuged (500×g for 10 minutes at 4° C.), resuspended in 5 ml homogenization buffer (10 mM Tris-HCl, pH 7.4, 0.01 mM Pefabloc, 10 μM phosphoramidon, 40 μg/ml bacitracin) and then homogenized using a glass homogenizer (10-15 strokes). The homogenate was centrifuged for 10 minutes (1,000×g at 4° C.). The resulting supernatant was then centrifuged at 38,700×g for 15 minutes at 4° C. Pelleted membranes were resuspended (passed through 25 gauge needle 5 times), snap-frozen on liquid nitrogen, and stored at −80° C. until use.
(§5) For the SPA-based assay, WGA-PVT beads (NEN Life Sciences Products) were resuspended in Dulbecco's PBS with calcium and magnesium (500 mg beads in 4 ml PBS). […] The suspension was mixed gently for 20 minutes, 12.3 ml of assay buffer and protease inhibitors were added (final concentration given): 2 μg/ml leupeptin, 10 μM phosphoramidon, 40 μg/ml bacitracin, 5 μg/ml aprotinin, 0.1 mM Pefabloc.
(§6) Coated beads were kept on ice until use. […] Binding reactions were allowed to proceed at room temperature for 3 hours. Quantitation was performed by scintillation counting (TopCount device).

human MCH-2R = human MCH-2R (Homo sapiens, UniProt Q969V1); experiment: Radiolabeled MCH-R binding assay (SPA based), MCH-2R; details: MCH-2R IC50 (nM)
Method: as §4, §5, §6

human MCH-R2 = human MCH-R2 (Homo sapiens, UniProt Q969V1); experiment: Aequorin bioluminescence functional assay, MCH-2R; details: aequorin functional assay; for MCH-2R Activation %: % Activation at 10 μM
human MCH-R2, sequence (Q969V1 whole entry): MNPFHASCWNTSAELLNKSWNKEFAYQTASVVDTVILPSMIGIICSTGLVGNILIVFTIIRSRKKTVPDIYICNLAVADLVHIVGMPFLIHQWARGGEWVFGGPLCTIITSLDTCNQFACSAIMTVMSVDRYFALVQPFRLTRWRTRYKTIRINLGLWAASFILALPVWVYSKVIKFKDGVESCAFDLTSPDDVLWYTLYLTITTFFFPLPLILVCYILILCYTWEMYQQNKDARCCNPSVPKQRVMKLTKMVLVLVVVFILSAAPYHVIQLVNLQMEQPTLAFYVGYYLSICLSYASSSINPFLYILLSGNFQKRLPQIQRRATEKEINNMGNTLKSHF
Method: as §1, §2, §3

human MCH-2R, sequence (Q969V1 whole entry): as above
T1 sequence (Q99705 whole entry): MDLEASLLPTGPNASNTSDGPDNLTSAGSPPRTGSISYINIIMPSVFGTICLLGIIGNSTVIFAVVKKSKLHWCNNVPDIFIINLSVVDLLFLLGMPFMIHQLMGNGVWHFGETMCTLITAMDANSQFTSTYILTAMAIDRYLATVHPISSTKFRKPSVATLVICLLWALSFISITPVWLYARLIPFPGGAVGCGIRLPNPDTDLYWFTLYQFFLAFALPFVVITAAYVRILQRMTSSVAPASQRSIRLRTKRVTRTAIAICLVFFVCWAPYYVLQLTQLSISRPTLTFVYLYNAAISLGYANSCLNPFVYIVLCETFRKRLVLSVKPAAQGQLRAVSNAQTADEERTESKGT

SMILES | EC50 (human MCH-1R [1]) [nM] | MCH-1R Activation % (human MCH-1R [1]; Table 2) [%] | IC50 (human MCH-1R [2]) [nM] | IC50 (human MCH-2R; Table 2) [nM] | EC50 (human MCH-R2; MCH-2R EC50 (nM), Table 2) [nM] | MCH-2R Activation % (human MCH-R2; Table 2) [%] | MCH-1R Activation % (human MCH-1R [1]; Table 3) [%] | IC50 (human MCH-2R; Table 3) [nM] | MCH-2R Activation % (human MCH-R2; Table 3) [%]
CSCC[C@@H]1NC(=O)[C@@H](NC(=O)[C@@H](N)CCCNC(=N)N)CSSC[C@@H](C(N)=O)NC(=O)[C@@H]2CCCN2C(=O)[C@H](CCCNC(=N)N)NC(=O)[C@H](Cc2ccc(O)cc2)NC(=O)[C@H](C(C)C)NC(=O)[C@H](CCCNC(=N)N)NC(=O)CNC(=O)[C@H](CC(C)C)NC1=O [compound 39] | 14 | 106 | 0.13 | 11 | 11.6 | 109 |  |  | 
CSCC[C@H](NC(=O)[C@H](CC(=O)O)NC(=O)[C@H](Cc1ccccc1)NC(=O)[C@@H](N)CC(=O)O)C(=O)N[C@@H](C)C(=O)N[C@@H](CCCNC(=N)N)C(=O)N[C@H]1CSSC[C@@H](C(=O)N[C@@H](Cc2c[nH]c3ccccc23)C(=O)N[C@@H](CCC(N)=O)C(=O)N[C@H](C(=O)O)C(C)C)NC(=O)[C@@H]2CCCN2C(=O)[C@H](CCCNC(=N)N)NC(=O)[C@H](Cc2ccc(O)cc2)NC(=O)[C@H](C(C)C)NC(=O)[C@H](CCCNC(=N)N)NC(=O)CNC(=O)[C@H](CC(C)C)NC(=O)[C@H](CCSC)NC1=O [compound 45] (H-DFDMARCMLGRVYRPCWQV-OH; disulfide 7-16; N-terminus and C-terminus assumed) |  |  | 0.3 |  |  |  | 96 | 2 | 94
CSCC[C@@H]1NC(=O)[C@@H](NC(=O)[C@H](CCCNC(=N)N)NC(=O)[C@H](CC(C)C)NC(=O)[C@H](CCSC)NC(=O)[C@H](CC(=O)O)NC(=O)[C@H](Cc2ccccc2)NC(=O)[C@@H](N)CC(=O)O)CSSC[C@@H](C(=O)N[C@@H](Cc2c[nH]c3ccccc23)C(=O)N[C@@H](CCC(N)=O)C(=O)N[C@H](C(=O)O)C(C)C)NC(=O)[C@@H]2CCCN2C(=O)[C@H](CCCNC(=N)N)NC(=O)[C@H](Cc2ccc(O)cc2)NC(=O)[C@H](C(C)C)NC(=O)[C@H](CCCNC(=N)N)NC(=O)CNC(=O)[C@H](C)NC1=O [compound 48] (H-DFDMLRCMAGRVYRPCWQV-OH; disulfide 7-16; N-terminus and C-terminus assumed) |  |  | 0.9 |  |  |  | 96 | 9.5 | 92
CSCC[C@@H]1NC(=O)[C@@H](NC(=O)[C@H](CCCNC(=N)N)NC(=O)[C@H](CC(C)C)NC(=O)[C@H](CCSC)NC(=O)[C@H](CC(=O)O)NC(=O)[C@H](Cc2ccccc2)NC(=O)[C@@H](N)CC(=O)O)CSSC[C@@H](C(=O)N[C@@H](Cc2c[nH]c3ccccc23)C(=O)N[C@@H](CCC(N)=O)C(=O)N[C@H](C(=O)O)C(C)C)NC(=O)[C@@H]2CCCN2C(=O)[C@H](CCCNC(=N)N)NC(=O)[C@H](Cc2ccc(O)cc2)NC(=O)[C@H](C)NC(=O)[C@H](CCCNC(=N)N)NC(=O)CNC(=O)[C@H](CC(C)C)NC1=O [compound 50] (H-DFDMLRCMLGRAYRPCWQV-OH; disulfide 7-16; N-terminus and C-terminus assumed) |  |  | 0.9 |  |  |  | 95 | 25 | 98
